≈ marks a conversion by molar mass, not a printed value. Square brackets hold non-standard residues; d marks the D form. Ends that are not written are not given here. Peptide text beside a SMILES is read from it. 1Nal = N[C@@H](Cc1cccc2ccccc12)C(=O)O

From US20040023884A1, “Biologically active peptides from functional domains of bactericidal/permeability-increasing protein and uses thereof” (priority 1993, published 2004) come the findings set out here.

One assay has as its system Staphylococcus aureus. In words: Radial diffusion bactericidal assay, Staphylococcus aureus. Conditions: radial diffusion; PROBIT analysis; S. aureus. In kind it is cell-based.
The test system of a further assay is C. albicans. In words: Radial diffusion fungicidal assay, Candida albicans. In kind it is cell-based. Conditions: radial diffusion.
A short description of assay [1]: 3H-heparin binding assay (affinity and capacity). The following applies: for Heparin Capacity: heparin bound at saturation; for Kd: read-out: Heparin Affinity. Summed up: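 Peptide fragments were bound to PVDF-membrane wells and incubated with 3H-heparin in blocking buffer for 1 h at 4 °C. After washing, bound radioactivity was quantified by liquid scintillation counting, with BSA background subtracted; rBPI23 served as positive control.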

Assay [2] deals with E. coli 0111:B4 (smooth) bacteria. The assay can be described thus: Radial diffusion bactericidal assay, E. coli 0111:B4. In kind it is cell-based. The following applies: radial diffusion; PROBIT analysis; E. coli O111:B4 (smooth).
Another assay relates to RAW 264.7 cells. The assay can be described thus: LPS neutralization cellular proliferation assay, RAW 264.7 cells. In kind it is cell-based, mouse. Summed up: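 Mouse RAW 264.7 cells were primed 24 h with 50U/mL mouse γ-interferon, then exposed about 15 h to E. coli O113 LPS in serum-free RPMI with or without BPI peptides at 25 ng/mL–50 μg/mL. Proliferation was quantified by [^3H]-thymidine uptake, 1 μCi/well, added at 5 h.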

Assay [3] concerns rough mutant E. coli J5 bacteria. In words: Radial diffusion bactericidal assay, E. coli J5. Format: cell-based. The following applies: radial diffusion; PROBIT analysis; E. coli J5 (rough). Summed up:
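Log-phase bacteria, washed in 10 mM sodium phosphate pH 7.4, were seeded at 4×10^6 CFU/mL in underlayer agarose. BPI fragments (5 or 10 μL) went into 3 mm wells for 3 h at 37° C., then overlayer agarose was added. After overnight 37° C. incubation, clearing zones were measured by micrometer.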

As for `CC[C@H](C)[C@H](NC(=O)[C@H](CC(C)C)NC(=O)[C@H](Cc1cccc2ccccc12)NC(=O)CNC(=O)[C@@H](NC(=O)[C@H](CCCCN)NC(=O)[C@H](CO)NC(=O)[C@@H](N)CCCCN)C(C)C)C(=O)N[C@@H](CCC(N)=O)C(=O)N[C@@H](CC(C)C)C(=O)N[C@@H](Cc1ccccc1)C(=O)N[C@@H](Cc1c[nH]cn1)C(=O)N[C@@H](CCCCN)C(=O)N[C@@H](CCCCN)C(=O)O` [BPI.83] (H-KSKVG[1Nal]LIQLFHKK-OH), in the assay with Staphylococcus aureus, the “pmol added to well to achieve a 30 mm^2 bactericidal zone, S. aureus” value (from here on “pmol added to well … S. aureus”) is given as 116,500.54 pmol. The “C. albicans: pmol required for 30 mm^2 zone” value (“C. albicans: pmol required” below) with C. albicans is recorded as 1804.26 pmol. Besides, in assay [1], the “Heparin Capacity” value turned out to be 253.3 ng and the Kd turned out to be 410 nM. Further, the “pmol added to well to achieve a 30 mm^2 bactericidal zone, E. coli O111:B4” value (from here on “pmol added to well … E. coli O111:B4”) in assay [2] was 51,147.55 pmol. Moreover, the “EC50 (peptide concentration at which the growth inhibitory effect of LPS was reversed by 50%)” value in the assay on RAW 264.7 cells came to 1.2 ± 0.1 µg/mL. In addition, the “pmol added to well to achieve a 30 mm^2 bactericidal zone, E. coli J5” value (from here on “pmol added to well … E. coli J5”) in assay [3] is recorded as 164.84 pmol.

Turning to KSKVGWLIFLFHKK [BPI.91], the “pmol added to well … S. aureus” value in the assay with Staphylococcus aureus was “b (no detectable activity up to 5 μg/well)”. For the same molecule, the “C. albicans: pmol required” value in the assay with C. albicans is recorded as greater than 3843.54 pmol. In addition, in assay [1], the “Heparin Capacity” value came to 181.2 ng and the Kd is 288 nM. Further, the “pmol added to well … E. coli O111:B4” value in assay [2] was “b (no detectable activity up to 5 μg/well)”. For the same molecule, the “IC50 (peptide concentration at which RAW cell growth was inhibited by 50%)” value in the assay with RAW 264.7 cells is listed as “— (No proliferation decrease up to 50 μg/ml)”. Also, the “pmol added to well … E. coli J5” value in assay [3] was 21,014.73 pmol.

For the molecule KSKVGWLILLFHKK [BPI.86], the “pmol added to well … S. aureus” value with Staphylococcus aureus is on record as 459,138.55 pmol. The “C. albicans: pmol required” value with C. albicans is greater than 2048.45 pmol. Also, in assay [1], the “Heparin Capacity” value is 208.4 ng and the Kd was found to be 383 nM. The “pmol added to well … E. coli O111:B4” value in assay [2] is “b (no detectable activity up to 5 μg/well)”. Moreover, the “EC50 (peptide concentration at which the growth inhibitory effect of LPS was reversed by 50%)” value in the assay on RAW 264.7 cells amounted to 0.13 ± 0.04 µg/mL. Besides, the “pmol added to well … E. coli J5” value in assay [3] was 1,519.64 pmol.

Consider `CC[C@H](C)[C@H](N)C(=O)N[C@@H](CCCCN)C(=O)N[C@H](C(=O)N[C@@H](CO)C(=O)NCC(=O)N[C@@H](CCCCN)C(=O)N[C@@H](Cc1cccc2ccccc12)C(=O)N[C@@H](CCCCN)C(=O)N[C@@H](C)C(=O)N[C@@H](CCC(N)=O)C(=O)N[C@@H](Cc1ccccc1)C(=O)N[C@@H](CCCNC(=N)N)C(=O)N[C@@H](Cc1ccccc1)C(=O)N[C@@H](CC(C)C)C(=O)N[C@@H](CCCCN)C(=O)N[C@@H](CCCCN)C(=O)N[C@@H](CO)C(=O)N[C@@H](CCCCN)C(=O)N[C@H](C(=O)NCC(=O)N[C@@H](Cc1c[nH]c2ccccc12)C(=O)N[C@@H](CC(C)C)C(=O)N[C@H](C(=O)N[C@@H](CCC(N)=O)C(=O)N[C@@H](CC(C)C)C(=O)N[C@@H](Cc1ccccc1)C(=O)N[C@@H](Cc1c[nH]cn1)C(=O)N[C@@H](CCCCN)C(=O)N[C@@H](CCCCN)C(=O)O)[C@@H](C)CC)C(C)C)[C@@H](C)CC` [BPI.93] (H-IKISGK[1Nal]KAQFRFLKKSKVGWLIQLFHKK-OH), for which the “pmol added to well … S. aureus” value with Staphylococcus aureus is given as “b (no detectable activity up to 5 μg/well)”. Moreover, in the assay with C. albicans, the “C. albicans: pmol required” value was greater than 980.27 pmol. In assay [1], the “Heparin Capacity” value was found to be 291.5 ng and the Kd stood at 387 nM. Besides, the “pmol added to well … E. coli O111:B4” value in assay [2] is 10,118.98 pmol. Also, in the assay with RAW 264.7 cells, the “EC50 (peptide concentration at which the growth inhibitory effect of LPS was reversed by 50%)” value stood at 0.9 ± 0.25 µg/mL and the “IC50 (peptide concentration at which RAW cell growth was inhibited by 50%)” value was 9.7 ± 0.1 µg/mL (≈ 2.73 µM). The “pmol added to well … E. coli J5” value in assay [3] is on record as 212.87 pmol.
